Structures can show the parent of a compound that is named as a salt. Marks after values point to notes of the source that are not given here.
How the values were obtained:
male Ross 308 chicks [1] = assay: N excretion during total excreta collection period; assay type: in vivo, broiler chicks; conditions: for N excretion: total excreta collection period, phytase 500 FTU/kg, betaine 2.75 g/kg
Description: (§1) The composition and nutrient specifications of the three basal starter (1-16 days post-hatch) and finisher (17-37 days post-hatch) diets are shown in Table 1. An NSP-degrading enzyme (Econase XT) was included across all the wheat-based diets to reflect standard practice and the finisher diets contained 20 g/kg Celite as an acid insoluble ash dietary marker. The starter diets were fed as mash, while the finisher diets were steam-pelleted at a conditioning temperature of 85° C. The NC1 diets were the ‘phytase-modified’ diets with formulated with reductions of 1.4 g/kg Ca and 1.5 g/kg P in the starter diets, which mainly stemmed from the elimination of dicalcium phosphate. The corresponding reductions in the finisher diets were 1.2 g/kg Ca and 1.4/kg P. The NC2 diets were the ‘betaine-modified’ diets in which energy density, methionine and choline levels were reduced mainly by lower inclusion levels of canola oil and synthetic methionine and the elimination of choline chloride relative to the PC diets. The energy densities were reduced from 12.55 to 12.24 MJ/kg in the starter diets and from 12.97 to 12.66 MJ/kg in the finisher diets. Methionine levels were reduced from 4.44 to 3.19 g/kg in the starter diets and from 4.18 to 2.93 g/kg in the finisher diets. Exogenous phytase (Quantum® Blue; AB Vista) was included in the relevant diets at 100 g per tonne or 500 FTU/kg phytase activity and, similarly, betaine HCl (Hi Beta″, 970 g/kg betaine hydrochloride; Rural Chemical Industries) was included in the diets at 2.75 g/kg.
(§2) The parameters evaluated included growth performance (weight gains, feed intakes, feed conversion ratios; FCR) from 1 to 16, 17 to 37 and 1 to 37 days post-hatch, 1 to 37 days weight gain-corrected FCR, mortality/cull rates, percentage toe ash, nitrogen (N) excretion and nutrient utilisation. Nutrient utilisation included apparent metabolisable energy (AME), expressed as both MJ/kg and MJ/day, N retention and N-corrected AME (AMEn). Also, breast weights in absolute and relative (% yield) terms, abdominal fat pad weights and pH of gizzard contents were determined. However, for reasons of practical expediency, absolute breast weights were determined on a ‘bone-in’ basis from birds that had not been de-feathered and this approach inflates both the absolute weight and yield; nevertheless, the data remains indicative. The experimental data was obtained and calculated via standard procedures followed by the Poultry Research Foundation. While the various procedures are not detailed in this report the majority of them have been described in detail (Selle et al., 2003b) previously.
The experimental data was statistically analysed as a 3×2×2 factorial array of dietary treatments. That is diet type (PC, NC1, NC2), without and with the addition of phytase, without and with the addition of betaine HCl. Each of the 12 dietary treatments was offered to 8 replicate cages of 6 birds or a total of 96 cages and 576 birds (male Ross 308 chicks). The IBM® SPSS® Statistics 20 program was used to analyse experimental data and the study complied with specific guidelines of the Animal Ethics Committee of Sydney University.

male Ross 308 chicks [2] = assay: Mortality/cull rates to 37 days post-hatch; conditions: phytase 500 FTU/kg, betaine 2.75 g/kg
Description: as §1, §2
The experimental data was statistically analysed as a 3×2×2 factorial array of dietary treatments. […]

male Ross 308 chicks [3] = assay: Nutrient utilisation (AME, N retention, N-corrected AME); assay type: in vivo, broiler chicks; conditions: for Increase in AMEn on addition to diet: diet type x betaine HCl interaction; for AME / AME (energy intake) / AMEn / N retention: phytase 500 FTU/kg, betaine 2.75 g/kg
Text: Energy that is not metabolisable is ‘excreted energy’. Another way of defining ‘metabolisable energy’ is to refer to an ‘apparent metabolisable energy value’ or ‘AME value’. An ‘AME value’ is simply the gross energy of the feed consumed minus the gross energy contained in the faeces, urine, and gaseous products of digestion.

[4] = main effect across diets, hydrochloride
[5] = main effect across diets, listed as betaine HCl, hydrochloride
[6] = main effect across diets, listed as betaine, hydrochloride

C[N+](C)(C)CC(=O)O [Betaine, betaine hydrochloride]
N excretion (male Ross 308 chicks [1]; NC1 diets): 37.30 g/bird
Reduction of N excretion versus NC2 control diets (male Ross 308 chicks [1]; NC2 diets): 7.03%
N excretion (male Ross 308 chicks [1]; NC2 diets): 42.47 g/bird
N excretion (male Ross 308 chicks [1]; PC diets): 40.34 g/bird
Reduction of N excretion (male Ross 308 chicks [1]; main effect): 7.69%
N excretion (male Ross 308 chicks [1]; [4]): 38.79^a g/bird
N excretion (male Ross 308 chicks [1]; main effect across diets, listed as Betaine HCl, hydrochloride): 38.79 g/bird
N excretion (male Ross 308 chicks [1]; [5]): 38.79 g/bird
Mortality and cull rates (male Ross 308 chicks [2]; NC1 diets): 4.18%
Mortality and cull rates (male Ross 308 chicks [2]; NC2 diets): 6.25%
Mortality and cull rates (male Ross 308 chicks [2]; PC diets): 4.18%
Mortality and cull rates (male Ross 308 chicks [2]; main effect across diets): 4.17%
AME, diet type x betaine interaction mean (male Ross 308 chicks [3]; NC1 diets): 13.10 mJ/kg
AMEn, diet type x betaine HCl interaction mean (male Ross 308 chicks [3]; NC1 diets): 11.36 mJ/kg
Increase in AMEn on addition to diet (male Ross 308 chicks [3]; NC1 diets): 1.01 mJ
Increase in AME on addition to diet (male Ross 308 chicks [3]; NC1 diets, diet type x betaine interaction): 0.78 mJ
Increase in AME relative to control diet (male Ross 308 chicks [3]; NC1 diets, individual addition): 0.44 mJ
AME (male Ross 308 chicks [3]; NC1 diets): 12.77 MJ/kg DM
AME (energy intake) (male Ross 308 chicks [3]; NC1 diets): 1.868 mJ/day
AMEn (male Ross 308 chicks [3]; NC1 diets): 11.25 MJ/kg DM
N retention (male Ross 308 chicks [3]; NC1 diets): 52.14%
Increase in AMEn on addition to diet (male Ross 308 chicks [3]; NC2 diets): 0.17 mJ
Decrease in AME on addition to diet (male Ross 308 chicks [3]; NC2 diets, diet type x betaine interaction): 0.08 mJ
AME (male Ross 308 chicks [3]; NC2 diets): 12.86 MJ/kg DM
AME (energy intake) (male Ross 308 chicks [3]; NC2 diets): 2.061 mJ/day
AMEn (male Ross 308 chicks [3]; NC2 diets): 11.43 MJ/kg DM
N retention (male Ross 308 chicks [3]; NC2 diets): 49.25%
Increase in AMEn on addition to diet (male Ross 308 chicks [3]; PC diets): 0.23 mJ
Increase in AME on addition to diet (male Ross 308 chicks [3]; PC diets, diet type x betaine interaction): 0.20 mJ
AME (male Ross 308 chicks [3]; PC diets): 13.29 MJ/kg DM
AME (energy intake) (male Ross 308 chicks [3]; PC diets): 2.077 mJ/day
AMEn (male Ross 308 chicks [3]; PC diets): 11.69 MJ/kg DM
N retention (male Ross 308 chicks [3]; PC diets): 52.05%
AME (energy intake), phytase x betaine interaction mean (male Ross 308 chicks [3]; across diet types): 2.002 mJ/day
AMEn, phytase x betaine HCl interaction mean (male Ross 308 chicks [3]; across diet types): 11.46 mJ/kg
Increase in AMEn by betaine HCl (male Ross 308 chicks [3]; in the absence of phytase): 0.20 mJ
Decrease in AME on betaine addition (male Ross 308 chicks [3]; in the absence of phytase, across diet types): 0.08 mJ
Increase in AMEn by betaine HCl (male Ross 308 chicks [3]; in the presence of phytase): 0.74 mJ
Increase in AME on betaine addition (male Ross 308 chicks [3]; in the presence of phytase, across diet types): 0.67 mJ
Increase in AME (male Ross 308 chicks [3]; main effect): 0.30 mJ/kg
N retention (male Ross 308 chicks [3]; main effect across diets): 52.02%
AME (male Ross 308 chicks [3]; [4]): 13.33^b MJ/kg DM
AME (energy intake) (male Ross 308 chicks [3]; [4]): 2.126 mJ/day
AMEn (male Ross 308 chicks [3]; [4]): 11.79^b MJ/kg DM
AMEn (male Ross 308 chicks [3]; [5]): 11.79 MJ/kg DM
AME (male Ross 308 chicks [3]; [6]): 13.33 MJ/kg DM
AME (energy intake) (male Ross 308 chicks [3]; [6]): did not influence

Source: patent US11974976B2, “Animal feeds and feed premixes containing betaine hydrochloride and a phytase” (Rural Chemical Industries (AUST) PTY LTD, priority 2013, dated 2024)
